# How the values were obtained:
# hα2B receptor = target: T1, hα2B receptor (Homo sapiens, UniProt P18089); assay: Radioligand binding experiment for hα2B receptor ([3H]-raulwolscine); conditions: membranes of CHO cells expressing human α2B receptor, [3H]raulwolscine 1 nM; for IC50: read-out: hα2B pIC50 (converted)
# T1 construct: expressed in transfected cells
# T1 sequence (P18089 1-450): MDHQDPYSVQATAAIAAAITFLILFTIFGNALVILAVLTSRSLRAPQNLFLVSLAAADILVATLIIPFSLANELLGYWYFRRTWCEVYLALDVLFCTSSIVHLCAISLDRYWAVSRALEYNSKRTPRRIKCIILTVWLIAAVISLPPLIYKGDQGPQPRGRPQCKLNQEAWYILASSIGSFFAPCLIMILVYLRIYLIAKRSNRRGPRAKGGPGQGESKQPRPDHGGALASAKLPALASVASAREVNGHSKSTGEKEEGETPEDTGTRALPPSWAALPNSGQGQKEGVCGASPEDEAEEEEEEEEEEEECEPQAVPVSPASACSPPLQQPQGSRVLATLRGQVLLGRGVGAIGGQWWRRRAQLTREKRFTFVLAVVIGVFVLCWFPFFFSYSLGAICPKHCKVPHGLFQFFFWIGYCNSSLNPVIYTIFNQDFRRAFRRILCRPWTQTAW
# In short: (§1)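 Competition binding with [3H]-rauwolscine on membranes from CHO cells stably expressing human α2A, α2B or α2C receptors (sodium butyrate-induced), in 25 mM glycylglycine pH 8.0; filtration and scintillation counting.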
# hα2C receptor = target: T2, hα2C receptor (Homo sapiens, UniProt P18825); assay: Radioligand binding experiment for hα2C receptor ([3H]-raulwolscine); conditions: membranes of CHO cells expressing human α2C receptor, [3H]raulwolscine 1 nM; for IC50: read-out: hα2C pIC50 (converted)
# T2 construct: expressed in transfected cells
# T2 sequence (P18825 1-462): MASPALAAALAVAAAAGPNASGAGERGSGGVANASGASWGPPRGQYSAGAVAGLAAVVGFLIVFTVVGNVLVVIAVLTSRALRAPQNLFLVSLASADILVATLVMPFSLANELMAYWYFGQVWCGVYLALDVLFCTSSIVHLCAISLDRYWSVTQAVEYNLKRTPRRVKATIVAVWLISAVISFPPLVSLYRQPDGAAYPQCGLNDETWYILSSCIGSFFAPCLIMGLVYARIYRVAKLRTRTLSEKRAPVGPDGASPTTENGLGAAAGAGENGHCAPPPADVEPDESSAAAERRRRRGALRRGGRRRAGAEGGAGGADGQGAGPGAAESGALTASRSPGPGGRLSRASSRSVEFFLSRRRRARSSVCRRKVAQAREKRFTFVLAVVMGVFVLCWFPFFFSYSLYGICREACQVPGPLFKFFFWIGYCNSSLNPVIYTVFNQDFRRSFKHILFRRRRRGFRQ
# In short: as §1
# hα2A receptor = target: T3, hα2A receptor (Homo sapiens, UniProt P08913); assay: Radioligand binding experiment for hα2A receptor ([3H]-raulwolscine); conditions: membranes of CHO cells expressing human α2A receptor, [3H]raulwolscine 1 nM; for IC50: read-out: hα2A pIC50 (converted)
# T3 construct: expressed in transfected cells
# T3 sequence (P08913 1-465): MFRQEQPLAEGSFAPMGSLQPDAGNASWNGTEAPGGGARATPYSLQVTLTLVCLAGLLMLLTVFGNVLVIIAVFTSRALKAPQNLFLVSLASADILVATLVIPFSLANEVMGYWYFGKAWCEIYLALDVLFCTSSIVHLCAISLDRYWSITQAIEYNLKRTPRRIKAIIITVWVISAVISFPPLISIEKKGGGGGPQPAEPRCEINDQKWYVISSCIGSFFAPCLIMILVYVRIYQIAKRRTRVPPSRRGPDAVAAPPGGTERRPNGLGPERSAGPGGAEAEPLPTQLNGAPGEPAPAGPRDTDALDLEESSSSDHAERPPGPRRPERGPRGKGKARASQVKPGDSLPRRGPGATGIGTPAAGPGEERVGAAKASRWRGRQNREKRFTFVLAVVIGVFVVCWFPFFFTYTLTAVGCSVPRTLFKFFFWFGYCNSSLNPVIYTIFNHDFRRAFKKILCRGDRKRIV
# Protocol: The interaction of the compounds of Formula (I) with hα2-receptors and h5-HT-transporters was assessed in in vitro radioligand binding experiments. In general, a low concentration of a radioligand with a high binding affinity for a particular receptor or transporter is incubated with a sample of a tissue preparation enriched in a particular receptor or transporter or with a preparation of cells expressing cloned human receptors in a buffered medium. During the incubation, the radioligand binds to the receptor or transporter. When equilibrium of binding is reached, the receptor bound radioactivity is separated from the non-bound radioactivity, and the receptor- or transporter-bound activity is counted. The interaction of the test compounds with the receptor is assessed in competition binding experiments. Various concentrations of the test compound are added to the incubation mixture containing the receptor- or transporter preparation and the radioligand. The test compound in proportion to its binding affinity and its concentration inhibits binding of the radioligand. The radioligand used for hα2A, hα2B and hα2C receptor binding was [^3H]-raulwolscine and for the h5-HT transporter was [^3H]paroxetine.
# CHO cells, stabile transfected with human adrenergic-α2A-, -α2B or α2C receptor cDNA, were cultured in Dulbecco's Modified Eagle's Medium (DMEM)/Nutrient mixture Ham's F12 (ratio 1:1)(Gibco, Gent-Belgium) supplemented with 10% heat inactivated fetal calf serum (Life Technologies, Merelbeke-Belgium) and antibiotics (100 IU/ml penicillin G, 100 μg/ml streptomycin sulphate, 110 μg/ml pyruvic acid and 100 μg/ml L-glutamine). One day before collection, cells were induced with 5 mM sodiumbutyrate. Upon 80–90% of confluence, cells were scraped in phosphate buffered saline without Ca^2+ and Mg^2+ and collected by centrifugation at 1500×g for 10 min. The cells were homogenised in Tris-HCl 50 mM using an Ultraturrax homogenizer and centrifuged for 10 min at 23,500×g. The pellet was washed once by resuspension and rehomogenization and the final pellet was resuspended in Tris-HCl, divided in 1 ml aliquots and stored at −70° C.
# Membranes were thawed and re-homogenized in incubation buffer (glycylglycine 25 mM, pH 8.0). […] Filters were rinsed extensively with ice-cold rinsing buffer (Tris-HCl 50 mM pH 7.4). Filter-bound radioactivity was determined by scintillation counting in a Topcount (Packard, Meriden, Conn.) and results were expressed as counts per minute (cpm). Non-specific binding was determined in the presence of 1 μM oxymetazoline for hα2A- and hα2B receptors and 1 μM spiroxatrine for hα2C receptors.
# Data from assays in the presence of compound were calculated as a percentage of total binding measured in the absence of test compound. Inhibition curves, plotting percent of total binding versus the log value of the concentration of the test compound, were automatically generated, and sigmoidal inhibition curves were fitted using non-linear regression. The pIC50 values of test compounds were derived from individual curves.
# h5-HT transporter = target: T4, h5-HT transporter (Homo sapiens, UniProt P31645); assay: Radioligand binding experiment for 5-HT transporter ([3H]paroxetine, human platelet membranes); conditions: human platelet membranes, [3H]paroxetine 0.5 nM; for IC50: read-out: 5HTT pIC50 (converted)
# T4 construct: Human platelet membranes (Oceanix Biosciences Corporation, Hanover, Md., USA) were thawed; tissue Oceanix Biosciences Corporation, Hanover, Md., USA; host or cells: human platelet membranes
# T4 sequence (P31645 whole entry): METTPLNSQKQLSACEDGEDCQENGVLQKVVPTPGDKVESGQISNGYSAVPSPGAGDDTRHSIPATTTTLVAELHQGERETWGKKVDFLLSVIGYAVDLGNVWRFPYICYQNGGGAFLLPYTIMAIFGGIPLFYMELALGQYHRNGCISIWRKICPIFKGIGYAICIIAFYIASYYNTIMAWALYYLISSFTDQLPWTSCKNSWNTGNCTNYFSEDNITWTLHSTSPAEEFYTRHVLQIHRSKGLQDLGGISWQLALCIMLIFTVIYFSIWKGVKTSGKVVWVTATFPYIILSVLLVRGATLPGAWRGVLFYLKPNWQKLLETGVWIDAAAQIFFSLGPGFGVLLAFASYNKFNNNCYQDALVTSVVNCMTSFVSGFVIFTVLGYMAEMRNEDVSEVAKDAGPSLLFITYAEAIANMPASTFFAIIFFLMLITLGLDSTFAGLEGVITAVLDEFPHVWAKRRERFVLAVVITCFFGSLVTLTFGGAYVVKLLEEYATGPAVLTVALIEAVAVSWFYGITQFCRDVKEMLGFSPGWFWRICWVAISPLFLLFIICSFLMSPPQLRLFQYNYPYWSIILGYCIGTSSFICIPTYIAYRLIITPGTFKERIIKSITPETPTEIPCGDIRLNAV
# In short: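 Competition binding of [^3H]paroxetine to human platelet membranes in Tris-HCl 50 mM, 120 mM NaCl, 5 mM KCl; filter-bound radioactivity counted.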
SMILES,IC50 (hα2B receptor),IC50 (hα2C receptor),IC50 (hα2A receptor),IC50 (h5-HT transporter),hα2B pIC50 (hα2B receptor),hα2C pIC50 (hα2C receptor),hα2A pIC50 (hα2A receptor),5HTT pIC50 (h5-HT transporter)
COc1cc2c(cc1OC)C1=NOC(CN3CCN(Cc4ccc5cc(C)ccc5c4)CC3)C1CO2 (stereo not drawn) [Compound 72],178 nM,66.1 nM,46.8 nM,6.92 nM,–,–,–,–
COc1cc2c(cc1OC)C1=NOC(CN3CCN(Cc4ccc5cc(F)ccc5c4)CC3)C1CO2 (stereo not drawn) [Compound 76],89.1 nM,25.1 nM,72.4 nM,1.58 nM,–,–,–,–
COc1cc2c(cc1OC)C1=NOC(CN3CCN(CC=Cc4cccc(C)c4)CC3)C1CO2 (stereo not drawn) [Compound 110],112 nM,34.7 nM,69.2 nM,30.2 nM,–,–,–,–
COc1cc2c(cc1OC)C1=NOC(CN3CCN(CC=Cc4ccc5c(c4)CCO5)CC3)C1CO2 (stereo not drawn) [Compound 125],141 nM,34.7 nM,56.2 nM,13.5 nM,–,–,–,–
COc1cc2c(cc1OC)C1=NOC(CN3CCN(CC(Br)=Cc4ccccc4)CC3)C1CO2 (stereo not drawn) [Compound 143],25.1 nM,23.4 nM,77.6 nM,24 nM,–,–,–,–
CCC(=Cc1ccccc1)CN1CCN(CC2ON=C3c4cc(OC)c(OC)cc4OCC32)CC1 (stereo not drawn) [Compound 154],40.7 nM,87.1 nM,53.7 nM,89.1 nM,–,–,–,–
COc1cc2c(cc1OC)C1=NOC(CN3CCN(CC=Cc4ccc5ccccc5c4)CC3)C1CO2 (stereo not drawn) [Compound 181],776 nM,324 nM,282 nM,23.4 nM,–,–,–,–
CC(=O)Oc1ccc2c(c1)OCC1C2=NOC1CN1CCN(CC=Cc2ccccc2)CC1 (stereo not drawn) [Compound 233],–,–,–,–,8.20,7.94,8.33,7.36
CSc1cc2c(cc1F)C1=NOC(CN3CCN(CC(C)=Cc4ccccc4)CC3)C1CO2 (stereo not drawn) [Compound 244],7.41 nM,1.35 nM,3.8 nM,126 nM,–,–,–,–
COc1cc2c(cc1Cl)C1=NOC(CN3CCN(CC(C)=Cc4ccccc4)CC3)C1CO2 (stereo not drawn) [Compound 246],–,–,–,–,7.90,7.86,7.55,7.50
COc1cc2c(cc1OC(C)=O)C1=NOC(CN3CCN(CC(C)=Cc4ccccc4)CC3)C1CO2 (stereo not drawn) [Compound 257],–,–,–,–,8.37,8.65,7.52,7.46
COc1ccc2c(c1)OCC1C2=NOC1CN1CCN(Cc2ccc3ccccc3c2)CC1 (stereo not drawn) [Compound 265],20.9 nM,27.5 nM,3.47 nM,14.8 nM,–,–,–,–
CN1CC2C(=NOC2CN2CCN(Cc3ccc4ccccc4c3)CC2)c2ccccc21 (stereo not drawn) [Compound 266],–,–,–,–,7.80,7.45,7.84,8.88
COCCOCOc1ccc2c(c1)OCC1C2=NOC1CN1CCN(Cc2ccc3ccccc3c2)CC1 (stereo not drawn) [Compound 267],12.6 nM,2.82 nM,3.24 nM,5.01 nM,–,–,–,–
Oc1ccc2c(c1)OCC1C2=NOC1CN1CCN(Cc2ccc3ccccc3c2)CC1 (stereo not drawn) [Compound 268],5.5 nM,8.91 nM,1 nM,5.75 nM,–,–,–,–
c1ccc2cc(CN3CCN(CC4ON=C5c6ccc(OC7CCOC7)cc6OCC54)CC3)ccc2c1 (stereo not drawn) [Compound 271],13.8 nM,42.7 nM,3.89 nM,2.95 nM,–,–,–,–
CC(=O)Oc1ccc2c(c1)OCC1C2=NOC1CN1CCN(Cc2ccc3ccccc3c2)CC1 (stereo not drawn) [Compound 273],20.9 nM,30.9 nM,7.76 nM,13.2 nM,–,–,–,–
c1ccc2cc(CN3CCN(CC4ON=C5c6cc7c(cc6OCC54)OCO7)CC3)ccc2c1 (stereo not drawn) [Compound 277],7.94 nM,17 nM,2.45 nM,107 nM,–,–,–,–
C(=Cc1ccccc1)CN1CCN(CC2ON=C3c4cc5c(cc4OCC32)OCO5)CC1 (stereo not drawn) [Compound 278],7.24 nM,6.92 nM,3.24 nM,245 nM,–,–,–,–
COc1ccc2c(c1)OCC1C2=NOC1CCN1CCN(Cc2ccc3ccccc3c2)CC1 (stereo not drawn) [Compound 280],447 nM,380 nM,91.2 nM,8.13 nM,–,–,–,–
COc1cc2c(cc1OC)C1=NOC(CN3CCN(Cc4cccc(F)c4)CC3)C1CO2 (stereo not drawn) [Compound 285],575 nM,363 nM,603 nM,257 nM,–,–,–,–
COc1cc2c(cc1OC)C1=NOC(CN3CCN(Cc4ccoc4)CC3)C1CO2 (stereo not drawn) [Compound 296],407 nM,724 nM,759 nM,871 nM,–,–,–,–
COc1cc2c(cc1OC)C1=NOC(CN3CCN(Cc4ccsc4)CC3)C1CO2 (stereo not drawn) [Compound 300],933 nM,631 nM,347 nM,724 nM,–,–,–,–
COc1cc2c(cc1OC)C1=NOC(CN3CCN(Cc4ccc5c(N)cccc5c4)CC3)C1CO2 (stereo not drawn) [Compound 304],58.9 nM,64.6 nM,19.5 nM,38.9 nM,–,–,–,–
